Legend:
[1] = compound: CN(C)CC[C@H](CSc1ccccc1)Nc1ccc(S(=O)(=O)NC(=O)c2ccc(N3CCN(Cc4ccccc4-c4ccc(Cl)cc4)CC3)cc2)cc1[N+](=O)[O-] [ABT-737]
[2] = compound: CN1CCN(CCOc2cc(OC3CCOCC3)c3c(Nc4c(Cl)ccc5c4OCO5)ncnc3c2)CC1 [Saracatinib/AZD0530]
[3] = compound: T1, CN1CC[C@H](c2c(O)cc(O)c3c(=O)cc(-c4ccccc4Cl)oc23)[C@H](O)C1 [Flavopiridol]
[4] = compound: CO[C@@H](C)Cn1c(=O)n(C)c2cnc3ccc(-c4cncc(C(C)(C)O)c4)cc3c21
[5] = compound: Cc1nc(-c2cn3c(n2)-c2ccc(-c4cnn(C(C)(C)C(N)=O)c4)cc2OCC3)n(C(C)C)n1 [Taselisib/GDC0032]
[6] = compound: C=CC(=O)Nc1ccc(C(=O)Nc2[nH]nc3c2CN(C(=O)N[C@H](CN(C)C)c2ccccc2)C3(C)C)cc1 [YKL-5-124]; assay: GR value, 72 h; higher = faster growth (1 = untreated, <0 = killing);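 further: breast cancer and non-malignant breast epithelial lines, nine half-log doses, viable cells counted by Hoechst and LIVE/DEAD dye imaging versus time-zero plates and DMSO controls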
[7] = compound: CC(=O)c1c(C)c2cnc(Nc3ccc(N4CCN(CCOCCOCCOCCNC(=O)COc5cccc6c5C(=O)N(C5CCC(=O)NC5=O)C6=O)CC4)cn3)nc2n(C2CCCC2)c1=O [BSJ-03-123]; assay: as above
[8] = compound: CC(=O)c1c(C)c2cnc(Nc3ccc(N4CCNCC4)cn3)nc2n(C2CCCC2)c1=O; assay: as above
[9] = compound: CCN1CCN(Cc2ccc(Nc3ncc(F)c(-c4cc(F)c5nc(C)n(C(C)C)c5c4)n3)nc2)CC1; assay: as above
[10] = compound: CCOc1cc2ncc(C#N)c(Nc3ccc(OCc4ccccn4)c(Cl)c3)c2cc1NC(=O)/C=C/CN(C)C [Neratinib/HKI272]; assay: as above
[11] = compound: CCc1cnn2c(NCc3ccc[n+]([O-])c3)cc(N3CCCC[C@H]3CCO)nc12; assay: as above
[12] = compound: CN(C)C(=O)c1cc2cnc(Nc3ccc(N4CCNCC4)cn3)nc2n1C1CCCC1 [LEE011/Ribociclib]; assay: as above
[13] = compound: CN(C)C/C=C/C(=O)Nc1ccc(C(=O)N2CCC[C@@H](Nc3ncc(Cl)c(-c4c[nH]c5ccccc45)n3)C2)cc1 [THZ531]; assay: as above
[14] = compound: CN(C)C/C=C/C(=O)Nc1ccc(C(=O)Nc2cccc(Nc3ncc(Cl)c(-c4c[nH]c5ccccc45)n3)c2)cc1 [THZ1]; assay: as above
[15] = compound: T1, Flavopiridol; assay: as above
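Wherever GR50, 72 h is given: breast cancer and non-malignant breast epithelial cell lines, Deep Dye Drop or Dye Drop imaging, nine half-log doses, GR normalized to time-zero plates and DMSO-only controls.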

Cell Line: MDAMB231
- GR50, 72 h [1]: 3.03 µM
- GR50, 72 h [2]: 2.33 µM
- GR50, 72 h [3]: 0.139 µM
- GR50, 72 h [4]: 0.031 µM
- GR50, 72 h [5]: 2.2 µM
- GR value ([6]; 0.001 µM): 0.388 GR
- GR value ([6]; 0.003162 µM): 0.284 GR
- GR value ([6]; 0.01 µM): 0.2 GR
- GR value ([6]; 0.03162 µM): 0.144 GR
- GR value ([6]; 0.1 µM): 0.101 GR
- GR value ([6]; 0.3162 µM): 0.0485 GR
- GR value ([6]; 1 µM): 0.0611 GR
- GR value ([6]; 3.162 µM): 0.0322 GR
- GR value ([6]; 10 µM): -0.182 GR
- GR value ([7]; 0.001 µM): 0.926 GR
- GR value ([7]; 0.003162 µM): 0.889 GR
- GR value ([7]; 0.01 µM): 0.828 GR
- GR value ([7]; 0.03162 µM): 0.779 GR
- GR value ([7]; 0.1 µM): 0.69 GR
- GR value ([7]; 0.3162 µM): 0.644 GR
- GR value ([7]; 1 µM): 0.466 GR
- GR value ([7]; 3.162 µM): 0.478 GR
- GR value ([7]; 10 µM): -0.156 GR
- GR value ([8]; 0.0003162 µM): 1.08 GR
- GR value ([8]; 0.001 µM): 1.02 GR
- GR value ([8]; 0.003162 µM): 0.921 GR
- GR value ([8]; 0.01 µM): 0.824 GR
- GR value ([8]; 0.03162 µM): 0.637 GR
- GR value ([8]; 0.1 µM): 0.494 GR
- GR value ([8]; 0.3162 µM): 0.418 GR
- GR value ([8]; 1 µM): 0.288 GR
- GR value ([8]; 3.162 µM): 0.202 GR
- GR value ([9]; 0.001 µM): 0.942 GR
- GR value ([9]; 0.003162 µM): 0.859 GR
- GR value ([9]; 0.01 µM): 0.699 GR
- GR value ([9]; 0.03162 µM): 0.513 GR
- GR value ([9]; 0.1 µM): 0.289 GR
- GR value ([9]; 0.3162 µM): 0.169 GR
- GR value ([9]; 1 µM): 0.0774 GR
- GR value ([9]; 3.162 µM): -0.187 GR
- GR value ([9]; 10 µM): -0.492 GR
- GR value ([10]; 0.0003162 µM): 1.03 GR
- GR value ([10]; 0.001 µM): 0.999 GR
- GR value ([10]; 0.003162 µM): 0.978 GR
- GR value ([10]; 0.01 µM): 1.05 GR
- GR value ([10]; 0.03162 µM): 1.03 GR
- GR value ([10]; 0.1 µM): 1.01 GR
- GR value ([10]; 0.3162 µM): 0.917 GR
- GR value ([10]; 1 µM): 0.688 GR
- GR value ([10]; 3.162 µM): -0.0968 GR
- GR value ([11]; 0.0001 µM): 0.921 GR
- GR value ([11]; 0.0003162 µM): 0.995 GR
- GR value ([11]; 0.001 µM): 0.966 GR
- GR value ([11]; 0.003162 µM): 0.93 GR
- GR value ([11]; 0.01 µM): 0.51 GR
- GR value ([11]; 0.03162 µM): -0.288 GR
- GR value ([11]; 0.1 µM): -0.361 GR
- GR value ([11]; 0.3162 µM): -0.372 GR
- GR value ([11]; 1 µM): -0.426 GR
- GR value ([12]; 0.001 µM): 0.792 GR
- GR value ([12]; 0.003162 µM): 0.835 GR
- GR value ([12]; 0.01 µM): 0.747 GR
- GR value ([12]; 0.03162 µM): 0.762 GR
- GR value ([12]; 0.1 µM): 0.673 GR
- GR value ([12]; 0.3162 µM): 0.617 GR
- GR value ([12]; 1 µM): 0.569 GR
- GR value ([12]; 3.162 µM): 0.466 GR
- GR value ([12]; 10 µM): 0.215 GR
- GR value ([13]; 0.0001 µM): 1.03 GR
- GR value ([13]; 0.0003162 µM): 0.974 GR
- GR value ([13]; 0.001 µM): 0.936 GR
- GR value ([13]; 0.003162 µM): 1.02 GR
- GR value ([13]; 0.01 µM): 0.939 GR
- GR value ([13]; 0.03162 µM): 0.975 GR
- GR value ([13]; 0.1 µM): 0.751 GR
- GR value ([13]; 0.3162 µM): 0.443 GR
- GR value ([13]; 1 µM): -0.275 GR
- GR value ([14]; 0.0001 µM): 1.02 GR
- GR value ([14]; 0.0003162 µM): 0.992 GR
- GR value ([14]; 0.001 µM): 0.993 GR
- GR value ([14]; 0.003162 µM): 1.03 GR
- GR value ([14]; 0.01 µM): 0.972 GR
- GR value ([14]; 0.03162 µM): 0.701 GR
- GR value ([14]; 0.1 µM): 0.26 GR
- GR value ([14]; 0.3162 µM): -0.0565 GR
- GR value ([14]; 1 µM): -0.5 GR
- GR value ([15]; 0.0001 µM): 1.02 GR
- GR value ([15]; 0.0003162 µM): 1.03 GR
- GR value ([15]; 0.001 µM): 1 GR
- GR value ([15]; 0.003162 µM): 0.886 GR
- GR value ([15]; 0.01 µM): 0.858 GR
- GR value ([15]; 0.03162 µM): 0.866 GR
- GR value ([15]; 0.1 µM): 0.656 GR
- GR value ([15]; 0.3162 µM): 0.152 GR
- GR value ([15]; 1 µM): -0.434 GR
